Holding throughout (assay): growth of human tumour cells (NCI), 48 h
For test [1], the system named is A498 renal.
In test [2] the test system is MALME-3M melanoma.
For test [3], the system named is DLD-1 colon.
In test [4] the test system is KM20L2 colon.
Test [5] relates to SR leukemia.
Test [6] has as its system DMS 273 small cell lung.
Test [7] has as its system TK-10 renal.
Test [8] concerns SK-MEL-5 melanoma.
Test [9] has as its system SN12C renal.
Test [10] concerns HCC-2998 colon.
Test [11] concerns ACHN renal.
The test system of test [12] is XF 498 CNS.
In test [13] the test system is PC-3 prostate.

The results in this text go back to PubChem BioAssay (NCI).

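Method: 48-hour compound exposure of cells in 96-well plates, five concentrations, linear interpolation of endpoints. GI50: concentration for 50% inhibition of growth. TGI is the concentration that stops growth completely.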 Where only a bound is given, the exact number is not on record here.

`COc1ccc(C(=O)Cc2cc(OC)ccc2OC)cc1`: the TGI in [1], in test [2], in test [3], in test [4], in test [5] and in test [6] was greater than 100 µM throughout. Also, the TGI in [7], in test [8], in test [9], in test [10] and in test [11] was greater than 100 µM in each case.
Take `C=C1C(=O)O[C@H]2C1[C@H](OC(=O)/C(C)=C\COC(C)=O)C[C@]1(CO1)[C@@H]1[C@H](O)[C@H]3O[C@@]3(C)[C@@H]12` (stereo partly drawn): the TGI in test [1] is 99 µM; in test [2] it was 38 µM; in [3], 34.1 µM; in [4], greater than 82.7 µM; in test [12], 38.4 µM; in test [6], greater than 63.2 µM. The TGI is 37.8 µM in [8], greater than 57.1 µM in [9] and 22.2 µM in [10].
Regarding `COc1ccc(CNc2nc(NCc3ccc(OC)cc3)nc(NC3CCCCC3)n2)cc1`, the TGI is greater than 100 µM in [1]; 1.61 µM in test [2]; greater than 100 µM in test [5]; 4.11 µM in test [7]; greater than 100 µM in test [8]; greater than 100 µM in test [13]. Moreover, the TGI was greater than 100 µM in test [9], 3.74 µM in test [10] and greater than 100 µM in test [11].
In the case of `COc1ccc(/C=N/Nc2[nH]c(=S)nc3[nH]ncc23)cc1`, the TGI in [1] was greater than 100 µM; in test [2] it was 99.4 µM; in [5], greater than 100 µM; in test [7], 65.9 µM; in test [8] it was greater than 100 µM; in test [13], greater than 100 µM. Also, the TGI in test [9], in [10] and in test [11] was greater than 100 µM in each case.
Take `CN(C)CCCn1c2ccccc2c2cnccc21`: the TGI in test [1] was greater than 100 µM; in test [2], 83.3 µM; in test [5] it was 43.4 µM; in [7], 84.9 µM; in [8], 42.5 µM; in test [13], greater than 100 µM. In addition, the TGI was 74.6 µM in test [9] and greater than 100 µM in test [11].
`Cc1cc(NS(=O)(=O)c2ccc(Nc3c4ccccc4nc4c(C(=O)NCCN(C)C)ccc(Cl)c34)cc2)no1`: the TGI in test [3] worked out at 17 µM; in [4], 24 µM; in test [12] it was 26.7 µM; in [5] it was 10.8 µM; in [7] it was 27.1 µM; in test [8] it was 10.1 µM. The results for the TGI in test [9] and in test [11] were 16.8 µM and 12.3 µM, respectively.
With `Cc1ncc([N+](=O)[O-])n1CCN=[N+]=[N-]`, the TGI in test [1], in test [2], in test [5], in [7], in test [8] and in [13] was greater than 100 µM each time. For the same molecule, the TGI in test [9] and in test [11] was greater than 100 µM each time.
Regarding `CCOC(=O)c1c2c(n(C)c1-c1ccccc1)C(=O)C(C)=CC2=O`, the TGI amounted to 34.8 µM in test [1]; 22.8 µM in test [2]; 9.39 µM in test [5]; 22.1 µM in test [7]; 21.5 µM in test [8]; 25.5 µM in test [13]. Moreover, the TGI amounted to 24.1 µM in test [9] and 20.7 µM in [11].
Take `O=S1(=O)NNC(=NCc2ccc(F)cc2)c2ccccc21`: the TGI in [1] was greater than 100 µM; in test [2] it was greater than 100 µM; in test [3], greater than 100 µM; in test [4] it was greater than 100 µM; in test [12], greater than 100 µM; in test [5], greater than 68.8 µM. Also, the TGI in test [6], in test [8], in [9], in test [10] and in test [11] was greater than 100 µM each time.
On to `COc1cn2c(cc1=O)COc1ccc(-c3ccccc3)cc1-2`, for which, in test [1], the GI50 was 33 µM. Also, the TGI is greater than 100 µM in test [1]; greater than 84.1 µM in test [2]; greater than 100 µM in test [5]; greater than 79.8 µM in test [7]; greater than 76 µM in test [8]; greater than 100 µM in [13]. The TGI in [9], in test [10] and in test [11] was greater than 100 µM in each case.
`CC(C)(C)OC(=O)NC(Cc1ccccc1)C(=O)N[C@H]1c2ccsc2/C(=N/O)[C@H]1O` (stereo partly drawn): the TGI in test [1], in test [2], in [5], in test [7], in test [8] and in test [13] was greater than 100 µM throughout. Moreover, the TGI in test [9] and in test [10] was greater than 100 µM throughout.
Take `COc1cc(S(=O)(=O)Nc2nc(-c3ccc(N4C(=O)/C(=C/c5ccccc5)N=C4c4ccccc4)cc3)cs2)ccc1Cl`: the TGI in test [1] was greater than 100 µM; in test [2], 83.6 µM; in test [5], greater than 100 µM; in test [7], greater than 100 µM; in test [8] it was greater than 100 µM; in [13], greater than 100 µM. Moreover, the TGI in [9] and in test [11] was greater than 100 µM each time.
On to `CC(C)=CCN(N=O)c1ncnc2nc[nH]c12`, for which the TGI in [1], in test [2], in [5], in test [7], in test [8] and in test [13] was greater than 100 µM in each case. The TGI in test [9], in test [10] and in test [11] was greater than 100 µM in each case.
In the case of `CCCCc1ccc2[n+](c1)C(C(=O)OCC)=PC2` (stereo not drawn), the TGI in test [1], in test [2], in test [5], in test [7], in [8] and in test [13] was greater than 100 µM in each case. The TGI in [9], in test [10] and in test [11] was greater than 100 µM throughout.
Regarding `O=C1c2ccccc2-c2ccc(NC(=O)C3CCCCC3C(=O)O)cc21` (stereo not drawn), the TGI in test [1], in [2], in test [5], in test [7], in test [8] and in [13] was greater than 100 µM throughout. Further, the TGI in test [9] and in test [11] was greater than 100 µM throughout.
Turning to `COc1cc(C2C(Cl)C(=O)N2c2ccc(Br)cc2)cc(I)c1O` (stereo not drawn), the TGI in test [1], in test [5], in test [7], in test [8], in [13] and in test [9] was greater than 100 µM each time. The same molecule gave a TGI in [11] greater than 100 µM.
Turning to `COc1cc(N=Nc2cccc(S(=O)(=O)O)c2)c(C)cc1N=Nc1ccc(/C=C/c2ccc(N=[N+]([O-])c3ccc(/C=C/c4ccc(N=Nc5cc(C)c(N=Nc6cccc(S(=O)(=O)O)c6)cc5OC)cc4)c(S(=O)(=O)O)c3)cc2S(=O)(=O)O)cc1`, the TGI in test [1], in test [2], in test [3], in test [4], in test [12] and in test [6] was greater than 100 µM each time. Also, the TGI in test [8], in [9] and in test [10] was greater than 100 µM in each case.
For `COc1ccccc1C1C(C#N)=C(N)OC2=C1C(=O)CCC2` (stereo not drawn), the GI50 in test [1] was greater than 100 µM; in test [2], greater than 100 µM; in [5] it was 14.2 µM; in [7], greater than 100 µM; in [8] it was greater than 100 µM; in [10], greater than 100 µM. The GI50 in [11] is greater than 100 µM. Further, the TGI in test [1], in [2], in test [5], in test [7], in test [8] and in test [10] was greater than 100 µM throughout. In addition, the TGI in test [11] was greater than 100 µM.
